Experimental data as given in US8691758B2, “Inhibitors of serine proteases, particularly HCV NS3-NS4A protease” (Vertex Pharmaceuticals Incorporated, priority 2003, dated 2014).

How the values were obtained:
[1] = tested on: Cells containing hepatitis C virus (HCV) replicon; experiment: HCV replicon cell assay (Taqman RT-PCR of HCV RNA); type: cell-based; details: concentration at which 50% inhibition of HCV RNA level is observed, 48-hour incubation, 2% FBS
Method: HCV Replicon Cell Assay Protocol
Cells containing hepatitis C virus (HCV) replicon were maintained in DMEM containing 10% fetal bovine serum (FBS), 0.25 mg per ml of G418, with appropriate supplements (media A).
On day 1, replicon cell monolayer was treated with a trypsin:EDTA mixture, removed, and then media A was diluted into a final concentration of 100,000 cells per ml wit. 10,000 cells in 100 ul were plated into each well of a 96-well tissue culture plate, and cultured overnight in a tissue culture incubator at 37° C.
On day 2, compounds (in 100% DMSO) were serially diluted into DMEM containing 2% FBS, 0.5% DMSO, with appropriate supplements (media B). The final concentration of DMSO was maintained at 0.5% throughout the dilution series.
Media on the replicon cell monolayer was removed, and then media B containing various concentrations of compounds was added. Media B without any compound was added to other wells as no compound controls.
Cells were incubated with compound or 0.5% DMSO in media B for 48 hours in a tissue culture incubator at 37° C. At the end of the 48-hour incubation, the media was removed, and the replicon cell monolayer was washed once with PBS and stored at −80° C. prior to RNA extraction.
Culture plates with treated replicon cell monolayers were thawed, and a fixed amount of another RNA virus, such as Bovine Viral Diarrhea Virus (BVDV) was added to cells in each well. RNA extraction reagents (such as reagents from RNeasy kits) were added to the cells immediately to avoid degradation of RNA. Total RNA was extracted according the instruction of manufacturer with modification to improve extraction efficiency and consistency. Finally, total cellular RNA, including HCV replicon RNA, was eluted and stored at −80° C. until further processing.
A Taqman real-time RT-PCR quantification assay was set up with two sets of specific primers and probe. One was for HCV and the other was for BVDV. Total RNA extractants from treated HCV replicon cells was added to the PCR reactions for quantification of both HCV and BVDV RNA in the same PCR well. Experimental failure was flagged and rejected based on the level of BVDV RNA in each well. The level of HCV RNA in each well was calculated according to a standard curve run in the same PCR plate. The percentage of inhibition or decrease of HCV RNA level due to compound treatment was calculated using the DMSO or no compound control as 0% of inhibition. The IC50 (concentration at which 50% inhibition of HCV RNA level is observed) was calculated from the titration curve of any given compound.

[2] = biological target: HCV NS3-NS4A protease (tNS3 with KK4A) (Hepatitis C virus genotype 1a, UniProt P27958); experiment: HCV Ki assay (HPLC microbore separation of 5AB substrate and products); type: biochemical; details: 25 nM tNS3, 25 μM KK4A, 25 μM 5AB substrate, 20 min at 30 C
Method: HPLC Microbore Method for Separation of 5AB Substrate and Products
• NH2-Glu-Asp-Val-Val-(alpha)Abu-Cys-Ser-Met-Ser-Tyr-COOH
A stock solution of 20 mM 5 AB (or concentration of your choice) was made in DMSO w/0.2M DTT. This was stored in aliquots at −20 C.
Buffer: 50 mM HEPES, pH 7.8; 20% glycerol; 100 mM NaCl
Total assay volume was 100 μL
The buffer, KK4A, DTT, and tNS3 were combined; distributed 78 μL each into wells of 96 well plate. This was incubated at 30 C for ˜5-10 min.
2.5 μL of appropriate concentration of test compound was dissolved in DMSO (DMSO only for control) and added to each well. This was incubated at room temperature for 15 min.
Initiated reaction by addition of 20 μL of 250 μM 5AB substrate (25 μM concentration is equivalent or slightly lower than the Km for 5 AB). • Incubated for 20 min at 30 C. • Terminated reaction by addition of 25 μL of 10% TFA • Transferred 120 μL aliquots to HPLC vials
Separated SMSY product from substrate and KK4A by the following method:
Microbore Separation Method:
• Instrumentation: Agilent 1100 • Degasser G1322A • Binary pump G1312A • Autosampler G1313A • Column thermostated chamber G1316A • Diode array detector G1315A • Column: • Phenomenex Jupiter; 5 micron C18; 300 angstroms; 150×2 mm; P/O 00F-4053-B0 • Column thermostat: 40 C • Injection volume: 100 μL • Solvent A=HPLC grade water+0.1% TFA • Solvent B=HPLC grade acetonitrile+0.1% TFA
• Stop time: 17 min • Post-run time: 10 min.

HCV NS3-NS4A protease (tNS3 with KK4A), sequence (P27958 1658-1711): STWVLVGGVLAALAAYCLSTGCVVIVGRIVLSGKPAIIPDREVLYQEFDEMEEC
HCV NS3-NS4A protease (tNS3 with KK4A), sequence (P27958 1027-1208): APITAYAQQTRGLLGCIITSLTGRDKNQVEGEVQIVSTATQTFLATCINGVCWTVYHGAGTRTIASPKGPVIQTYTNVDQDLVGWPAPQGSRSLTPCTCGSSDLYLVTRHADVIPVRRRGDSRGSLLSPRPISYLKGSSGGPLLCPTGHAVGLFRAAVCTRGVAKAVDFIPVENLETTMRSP

SMILES: CCC[C@H](NC(=O)[C@@H]1CC2(CN1C(=O)[C@@H](NC(=O)[C@@H](NC(=O)c1[nH]c(C)c(C)c1C(C)=O)C1CCCCC1)C(C)(C)C)SCCCS2)C(=O)C(=O)NC1CC1 [Compound 1a, 2-(2-{2-[(3-acetyl-4,5-dimethyl-1H-pyrrole-2-carbonyl)-amino]-2-cyclohexyl-acetylamino}-3,3-dimethyl-butyryl)-6,10-dithia-2-aza-spiro[4.5]decane-3-carboxylic acid(1-cyclopropylaminooxalyl-butyl)-amide]
- IC50 [1]: < 500 nM
- Ki [2]: < 500 nM

SMILES: CCC[C@H](NC(=O)[C@@H]1CC2(CN1C(=O)[C@@H](NC(=O)[C@@H](NC(=O)c1cnccn1)C1CCCCC1)C(C)(C)C)SCCCS2)C(=O)C(=O)NC1CC1 [Compound 2a, 2-(2-{2-cyclohexyl-2-[(pyrazine-2-carbonyl)-amino]-acetylamino}-3,3-dimethyl-butyryl)-6,10-dithia-2-azaspiro[4.5]decane-3-carboxylic acid(1-cyclopropylaminooxalyl-butyl)-amide]
- IC50 [1]: < 500 nM
- Ki [2]: < 500 nM

SMILES: CCC[C@H](NC(=O)[C@@H]1CC2(CN1C(=O)[C@@H](NC(=O)[C@@H](NC(=O)c1cnccn1)C1CCCCC1)C(C)(C)C)SCCCS2)C(=O)C(N)=O [Compound 3a]
- IC50 [1]: < 500 nM
- Ki [2]: < 500 nM

SMILES: CCC[C@H](NC(=O)[C@@H]1CC2(CN1C(=O)[C@@H](NC(=O)[C@@H](NC(=O)c1[nH]c(C)c(C)c1C(C)=O)C1CCCCC1)C(C)(C)C)SCCCS2)C(=O)C(N)=O [Compound 4a]
- IC50 [1]: < 500 nM
- Ki [2]: < 500 nM

SMILES: CCC[C@@H](NC(=O)[C@@H]1CC2(CN1C(=O)[C@@H](NC(=O)[C@@H](NC(=O)c1cnccn1)C1CCCCC1)C(C)(C)C)SCCCS2)C(=O)C(=O)NC1CC1 [Compound 5a]
- Ki [2]: < 500 nM

SMILES: CCCC(NC(=O)[C@@H]1CC2(CN1C(=O)[C@@H](NC(=O)[C@@H](NC(=O)c1cnccn1)C1CCCCC1)C(C)(C)C)SCCCS2)C(=O)C(=O)NC1CC1 (stereo partly drawn) [Compound 6a]
- Ki [2]: < 500 nM

SMILES: CCC[C@H](NC(=O)[C@@H]1CC2(CN1C(=O)[C@@H](NC(=O)[C@@H](NC(=O)c1cnccn1)C1CCCCC1)C(C)(C)C)SCCS2)C(=O)C(=O)NC1CC1 [Compound 7a]
- IC50 [1]: < 500 nM
- Ki [2]: < 500 nM
